According to patent US9693556B2, “Herbicidal pyridazinone derivatives” (SYNGENTA LIMITED, priority 2011, dated 2017):

Assays:
Type in all cases: in vivo
[1] = tested on: Amaranthus retoflexus (AMARE); test: Pre-emergence herbicidal glasshouse test on Amaranthus retoflexus; conditions: pre-emergence; 1000 g/h; evaluated after 13 days
Procedure, shortened: (§1)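 Scored on a five-point scale (1 = 0-19% to 5 = 80-100% damage) 13 days after treatment. Application rate 1000 g/h in acetone/water (50:50) containing 0.5% Tween 20, sprayed one day post-sowing for pre-emergence or eight days for post-emergence; glasshouse at 24/16° C, 14 h light, 65% humidity.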

[2] = tested on: Alopecurus myosuroides (ALOMY); test: Post-emergence herbicidal glasshouse test on Alopecurus myosuroides; conditions: post-emergence; 1000 g/h; evaluated after 13 days
Procedure, shortened: as §1

[3] = tested on: Echinochloa crus-galli (ECHCG); test: Post-emergence herbicidal glasshouse test on Echinochloa crus-galli; conditions: post-emergence; 1000 g/h; evaluated after 13 days
Procedure, shortened: as §1

[4] = tested on: Solanum nigrum (SOLNI); test: Pre-emergence herbicidal glasshouse test on Solanum nigrum; conditions: pre-emergence; 1000 g/h; evaluated after 13 days
Procedure, shortened: as §1

[5] = tested on: Echinochloa crus-galli (ECHCG); test: Pre-emergence herbicidal glasshouse test on Echinochloa crus-galli; conditions: pre-emergence; 1000 g/h; evaluated after 13 days
Procedure, shortened: as §1

[6] = tested on: Setaria faberi (SETFA); test: Pre-emergence herbicidal glasshouse test on Setaria faberi; conditions: pre-emergence; 1000 g/h; evaluated after 13 days
Procedure, shortened: as §1

[7] = tested on: Ipomoea hederacea (IPOHE); test: Pre-emergence herbicidal glasshouse test on Ipomoea hederacea; conditions: pre-emergence; 1000 g/h; evaluated after 13 days
Procedure, shortened: as §1

[8] = tested on: Alopecurus myosuroides (ALOMY); test: Pre-emergence herbicidal glasshouse test on Alopecurus myosuroides; conditions: pre-emergence; 1000 g/h; evaluated after 13 days
Procedure, shortened: as §1

[9] = tested on: Solanum nigrum (SOLNI); test: Post-emergence herbicidal glasshouse test on Solanum nigrum; conditions: post-emergence; 1000 g/h; evaluated after 13 days
Procedure, shortened: as §1

[10] = tested on: Ipomoea hederacea (IPOHE); test: Post-emergence herbicidal glasshouse test on Ipomoea hederacea; conditions: post-emergence; 1000 g/h; evaluated after 13 days
Procedure, shortened: as §1

[11] = tested on: Setaria faberi (SETFA); test: Post-emergence herbicidal glasshouse test on Setaria faberi; conditions: post-emergence; 1000 g/h; evaluated after 13 days
Procedure, shortened: as §1

[12] = tested on: Amaranthus retoflexus (AMARE); test: Post-emergence herbicidal glasshouse test on Amaranthus retoflexus; conditions: post-emergence; 1000 g/h; evaluated after 13 days
Procedure, shortened: as §1

SMILES	PRE Application AMARE herbicidal damage (five point scale) [1]	POST Application ALOMY herbicidal damage (five point scale) [2]	POST Application ECHCG herbicidal damage (five point scale) [3]	PRE Application SOLNI herbicidal damage (five point scale) [4]	PRE Application ECHCG herbicidal damage (five point scale) [5]	PRE Application SETFA herbicidal damage (five point scale) [6]	PRE Application IPOHE herbicidal damage (five point scale) [7]	PRE Application ALOMY herbicidal damage (five point scale) [8]	POST Application SOLNI herbicidal damage (five point scale) [9]	POST Application IPOHE herbicidal damage (five point scale) [10]	POST Application SETFA herbicidal damage (five point scale) [11]	POST Application AMARE herbicidal damage (five point scale) [12]
Cc1cc(C)c2cc(-c3cnn(C)c(=O)c3O)c(C(F)(F)F)nc2n1 [Compound 5.002]	5 (5=80-100% damage)	1 (1=0-19% damage)	3 (3=40-59% damage)	1 (1=0-19% damage)	2 (2=20-39% damage)	1 (1=0-19% damage)	3 (3=40-59% damage)	1 (1=0-19% damage)	5 (5=80-100% damage)	5 (5=80-100% damage)	2 (2=20-39% damage)	5 (5=80-100% damage)
C=C(C)c1ccc(-c2cnn(C)c(=O)c2O)c(S(C)(=O)=O)c1 [Compound 1.140]	5 (5=80-100% damage)	5 (5=80-100% damage)	5 (5=80-100% damage)	5 (5=80-100% damage)	5 (5=80-100% damage)	1 (1=0-19% damage)	2 (2=20-39% damage)	5 (5=80-100% damage)	5 (5=80-100% damage)	5 (5=80-100% damage)	3 (3=40-59% damage)	5 (5=80-100% damage)
Cn1ncc(-c2ccccc2[S+](C)[O-])c(O)c1=O (stereo not drawn) [Compound 1.036]	3 (3=40-59% damage)	5 (5=80-100% damage)	5 (5=80-100% damage)	1 (1=0-19% damage)	2 (2=20-39% damage)	2 (2=20-39% damage)	1 (1=0-19% damage)	3 (3=40-59% damage)	5 (5=80-100% damage)	5 (5=80-100% damage)	5 (5=80-100% damage)	5 (5=80-100% damage)
Cn1ncc(-c2ccc(C(F)(F)F)nc2O)c(O)c1=O [Compound 4.006]	1 (1=0-19% damage)	1 (1=0-19% damage)	1 (1=0-19% damage)	1 (1=0-19% damage)	1 (1=0-19% damage)	1 (1=0-19% damage)	1 (1=0-19% damage)	1 (1=0-19% damage)	4 (4=60-79% damage)	2 (2=20-39% damage)	1 (1=0-19% damage)	3 (3=40-59% damage)
O=c1c(O)c(-c2ccc(C(F)(F)F)cc2C(F)(F)F)cnn1C(F)F [Compound 1.006]	5 (5=80-100% damage)	1 (1=0-19% damage)	1 (1=0-19% damage)	3 (3=40-59% damage)	2 (2=20-39% damage)	1 (1=0-19% damage)	3 (3=40-59% damage)	2 (2=20-39% damage)	5 (5=80-100% damage)	5 (5=80-100% damage)	1 (1=0-19% damage)	5 (5=80-100% damage)
Cn1ncc(-c2ccc(Cl)c(F)c2Cl)c(O)c1=O [Compound 1.092]	1 (1=0-19% damage)	1 (1=0-19% damage)	1 (1=0-19% damage)	1 (1=0-19% damage)	1 (1=0-19% damage)	1 (1=0-19% damage)	1 (1=0-19% damage)	1 (1=0-19% damage)	2 (2=20-39% damage)	2 (2=20-39% damage)	1 (1=0-19% damage)	1 (1=0-19% damage)
Cc1cc(Cl)ccc1-c1c(C(F)(F)F)ccn(-c2cnn(C)c(=O)c2O)c1=O [Compound 7.038]	5 (5=80-100% damage)	5 (5=80-100% damage)	5 (5=80-100% damage)	5 (5=80-100% damage)	5 (5=80-100% damage)	3 (3=40-59% damage)	4 (4=60-79% damage)	5 (5=80-100% damage)	5 (5=80-100% damage)	5 (5=80-100% damage)	3 (3=40-59% damage)	5 (5=80-100% damage)
CCS(=O)(=O)c1ccccc1-c1cnn(C)c(=O)c1O [Compound 1.042]	5 (5=80-100% damage)	5 (5=80-100% damage)	5 (5=80-100% damage)	5 (5=80-100% damage)	5 (5=80-100% damage)	5 (5=80-100% damage)	1 (1=0-19% damage)	5 (5=80-100% damage)	5 (5=80-100% damage)	4 (4=60-79% damage)	5 (5=80-100% damage)	5 (5=80-100% damage)
